pIC50: −log10 of the molar value. Calls of active or inactive are those of the source. No cut-off for these calls is given here.

For 31 molecules, IC50, EC30 and Activity results are on record in ChEMBL document CHEMBL1817645, “Synthesis and pharmacological evaluation of 1-alkyl-N-[2-ethyl-2-(4-fluorophenyl)butyl]piperidine-4-carboxamide derivatives as novel antihypertensive agents” (Bioorg Med Chem, 2011).

The target of data set [1] is Voltage-dependent T-type calcium channel subunit alpha-1G (Homo sapiens, UniProt O43497). The experiment in a line: Inhibition of human Cav3.1 alpha1G expressed in HEK293 cells assessed as inhibition of calcium influx by FLIPR assay. Type of data set: cell-based.
Data set [2] is described as follows: Bradycardic activity in Hartley guinea pig right atrial muscles assessed as reduction of initial spontaneous beat rate after 30 mins. Type of data set: functional. The conditions noted are these: Cavia porcellus, Muscle tissue, 0.5 h.
Data set [3] deals with Rattus norvegicus. The data set can be described thus: Antihypertensive activity in spontaneously hypertensive rat assessed as reduction of mean blood pressure at 30 mg/kg, po after 8 hrs. Set-up: dose 30 mg/kg. It counts as functional, organism-based.
For data set [4], the system named is Rattus norvegicus. The experiment in a line: Toxicity in spontaneously hypertensive rat assessed as effect on reflex tachycardia at 30 mg/kg, po after 8 hrs. Type of data set: organism-based. More on the design: dose 30 mg/kg, route oral. The settings on record: in vivo.
For data set [5], the system named is Rattus norvegicus. The data set can be described thus: Antihypertensive activity in spontaneously hypertensive rat assessed as reduction of mean blood pressure at 30 mg/kg, po. Type of data set: functional. More on the design: scale not given: the % may be the effect or the level left.

Sequence of Voltage-dependent T-type calcium channel subunit alpha-1G (O43497 whole entry): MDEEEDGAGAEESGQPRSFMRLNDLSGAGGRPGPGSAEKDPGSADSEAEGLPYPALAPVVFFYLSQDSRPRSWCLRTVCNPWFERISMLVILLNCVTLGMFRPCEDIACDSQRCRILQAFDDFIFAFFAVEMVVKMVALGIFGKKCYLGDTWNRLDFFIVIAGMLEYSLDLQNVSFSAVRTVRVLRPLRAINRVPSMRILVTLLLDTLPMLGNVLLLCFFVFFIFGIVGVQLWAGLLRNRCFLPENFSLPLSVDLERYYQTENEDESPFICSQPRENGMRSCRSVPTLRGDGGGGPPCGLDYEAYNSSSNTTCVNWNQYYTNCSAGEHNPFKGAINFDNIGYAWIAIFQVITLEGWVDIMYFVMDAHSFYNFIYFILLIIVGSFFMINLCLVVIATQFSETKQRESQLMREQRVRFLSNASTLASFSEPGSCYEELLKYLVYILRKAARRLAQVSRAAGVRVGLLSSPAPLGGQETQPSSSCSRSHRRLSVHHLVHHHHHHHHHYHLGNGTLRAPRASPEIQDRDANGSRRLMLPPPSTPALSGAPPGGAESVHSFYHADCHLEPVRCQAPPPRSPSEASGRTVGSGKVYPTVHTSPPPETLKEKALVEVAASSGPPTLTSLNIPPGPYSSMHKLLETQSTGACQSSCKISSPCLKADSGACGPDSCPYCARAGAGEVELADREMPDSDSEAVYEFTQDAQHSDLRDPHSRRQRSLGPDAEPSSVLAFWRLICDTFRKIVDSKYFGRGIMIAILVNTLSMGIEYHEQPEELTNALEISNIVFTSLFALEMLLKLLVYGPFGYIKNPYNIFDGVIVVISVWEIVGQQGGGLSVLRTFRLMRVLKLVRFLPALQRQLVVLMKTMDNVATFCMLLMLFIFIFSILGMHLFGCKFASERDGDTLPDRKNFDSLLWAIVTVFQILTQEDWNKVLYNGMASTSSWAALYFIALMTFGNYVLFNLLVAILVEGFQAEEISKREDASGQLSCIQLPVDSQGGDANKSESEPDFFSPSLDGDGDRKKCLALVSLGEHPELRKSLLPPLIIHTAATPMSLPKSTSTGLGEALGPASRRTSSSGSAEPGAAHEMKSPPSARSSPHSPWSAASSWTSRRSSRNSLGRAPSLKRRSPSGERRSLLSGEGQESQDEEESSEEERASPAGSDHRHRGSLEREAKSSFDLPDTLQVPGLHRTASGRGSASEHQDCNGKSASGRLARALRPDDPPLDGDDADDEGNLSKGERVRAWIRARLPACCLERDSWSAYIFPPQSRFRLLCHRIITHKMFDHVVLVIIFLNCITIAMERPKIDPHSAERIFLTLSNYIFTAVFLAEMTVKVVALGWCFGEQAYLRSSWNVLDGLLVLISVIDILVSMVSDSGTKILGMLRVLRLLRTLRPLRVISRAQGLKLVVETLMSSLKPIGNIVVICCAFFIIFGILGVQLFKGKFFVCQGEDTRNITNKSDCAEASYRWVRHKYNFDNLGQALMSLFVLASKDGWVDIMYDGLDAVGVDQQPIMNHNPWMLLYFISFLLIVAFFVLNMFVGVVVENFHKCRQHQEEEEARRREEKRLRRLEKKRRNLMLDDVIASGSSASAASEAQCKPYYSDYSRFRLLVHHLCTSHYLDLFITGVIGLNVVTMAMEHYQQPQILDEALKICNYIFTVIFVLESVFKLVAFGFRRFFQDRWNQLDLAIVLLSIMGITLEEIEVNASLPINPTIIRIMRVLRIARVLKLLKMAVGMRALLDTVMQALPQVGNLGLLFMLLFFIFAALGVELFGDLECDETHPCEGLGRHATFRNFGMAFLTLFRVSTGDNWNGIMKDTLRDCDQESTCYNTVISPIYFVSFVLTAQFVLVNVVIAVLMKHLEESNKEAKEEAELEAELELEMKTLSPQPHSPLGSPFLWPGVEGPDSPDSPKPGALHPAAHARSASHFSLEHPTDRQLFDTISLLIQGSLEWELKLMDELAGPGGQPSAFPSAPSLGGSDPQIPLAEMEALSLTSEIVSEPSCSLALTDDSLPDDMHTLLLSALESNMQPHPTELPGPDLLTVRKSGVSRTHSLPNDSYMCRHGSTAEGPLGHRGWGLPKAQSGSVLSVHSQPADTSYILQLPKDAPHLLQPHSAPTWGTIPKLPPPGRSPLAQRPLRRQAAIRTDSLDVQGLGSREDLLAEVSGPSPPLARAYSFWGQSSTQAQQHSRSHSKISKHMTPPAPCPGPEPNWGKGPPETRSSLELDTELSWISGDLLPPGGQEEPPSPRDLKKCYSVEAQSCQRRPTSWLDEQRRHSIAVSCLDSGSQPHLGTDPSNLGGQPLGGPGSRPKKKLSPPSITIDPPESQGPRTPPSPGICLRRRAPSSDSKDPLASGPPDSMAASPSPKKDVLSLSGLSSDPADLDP

As usually defined, the pIC50 is the negative decadic logarithm of the IC50, by convention in mol/L. For the molecule `CCC(CC)(CNC(=O)C1CCN(CCc2ccccc2F)CC1)c1ccc(F)cc1`, the pIC50 in data set [1] was 7.05.

In the case of `O=C(NCC1(c2ccc(F)cc2)CCOCC1)C1CCN(Cc2ccccc2)CC1`, the pIC50 in data set [1] was 5.66.

For orientation: EC30 means the point of the concentration-response curve where the effect stands at 30%. Regarding `CCC(CC)(CNC(=O)C1CCN(Cc2ccccc2F)CC1)c1ccc(F)cc1`, in data set [1], the negative logarithm of the IC50 (pIC50) was 7.44. Besides, in data set [2], the EC30 is 4200 nM.

As for `CCC(CC)(CNC(=O)C1CCN(Cc2cccc(OC)c2)CC1)c1ccc(F)cc1`, the pIC50 in data set [1] is 7.03.

Turning to `CCC(CC)(CNC(=O)C1CCN(CCc2ccc(OC)cc2)CC1)c1ccc(F)cc1`, the pIC50 in data set [1] was 6.11.

With `CCC(CC)(CNC(=O)C1CCN(Cc2cccc(F)c2)CC1)c1ccc(F)cc1`, in data set [1], the pIC50 was 6.89.

For the molecule `O=C(NCC1(c2ccc(F)cc2)CCCCC1)C1CCCN(Cc2ccccc2)C1` (configuration not stated), the pIC50 in data set [1] is 5.92.

In the case of `CCC(CC)(CNC(=O)C1CCN(CCc2cccc(F)c2)CC1)c1ccc(F)cc1`, in data set [1], the pIC50 is 6.89.

For the molecule `CCC(CC)(CNC(=O)C1CCN(Cc2ccc(F)cc2)CC1)c1ccc(F)cc1`, the pIC50 in data set [1] is 7.09.

Take `CCC(CC)(CNC(=O)C1CCN(CCc2ccccc2OC)CC1)c1ccc(F)cc1`: the pIC50 in data set [1] was 6.77.

`CCC(CC)(CNC(=O)C1CCN(Cc2ccc(OC)cc2)CC1)c1ccc(F)cc1`: the pIC50 in data set [1] was 6.70.

Turning to `Fc1ccc(C2(CNCC3CCN(Cc4ccccc4)CC3)CCCCC2)cc1`, in data set [1], the pIC50 is 5.92.

Regarding `O=C(CCC1(c2ccc(F)cc2)CCCCC1)C1CCN(Cc2ccccc2)CC1`, in data set [1], the pIC50 was 5.70.

On to `CCC(CC)(CNC(=O)C1CCN(CCc2ccccc2)CC1)c1ccc(F)cc1`, for which the pIC50 in data set [1] was 7.05. Also, the outcome in the data set on Rattus norvegicus [3] was Active. The Activity entry in the data set on Rattus norvegicus [4] was “Non-toxic”; in the data set with Rattus norvegicus [5], 22%. For the same molecule, the EC30 in data set [2] worked out at 2500 nM.

Consider `CC(C)(CNC(=O)C1CCN(Cc2ccccc2)CC1)c1ccc(F)cc1`, for which the pIC50 in data set [1] is 6.89.

In the case of `O=C(NCC1(c2ccc(F)cc2)CCCC1)C1CCN(Cc2ccccc2)CC1`, in data set [1], the pIC50 is 6.66.

In the case of `CN(CC1(c2ccc(F)cc2)CCCCC1)C(=O)C1CCN(Cc2ccccc2)CC1`, in data set [1], the pIC50 is 6.12.

With `O=C(NCC1(c2ccc(F)cc2)CCCCC1)C1CCCCN1Cc1ccccc1` (configuration not stated), the pIC50 in data set [1] was 5.52.

Take `O=C(CC1(c2ccc(F)cc2)CCCCC1)NC1CCN(Cc2ccccc2)CC1`: the pIC50 in data set [1] is 6.07.

Take `CCC(CC)(CNC(=O)C1CCN(CCCCc2ccccc2)CC1)c1ccc(F)cc1`: the pIC50 in data set [1] is 6.60.

With `COCC(=O)O[C@]1(CCN(C)CCCc2nc3ccccc3[nH]2)CCc2cc(F)ccc2[C@@H]1C(C)C` [MIBEFRADIL], the EC30 in data set [2] is 2900 nM.

Take `CCC(CC)(CNC(=O)C1CCN(CCCc2ccccc2)CC1)c1ccc(F)cc1`: in data set [1], the pIC50 was 6.62.

Turning to `CCC(CC)(CNC(=O)C1CCN(CCc2ccc(F)cc2)CC1)c1ccc(F)cc1`, in data set [1], the negative-log IC50 (pIC50) is 6.74.

Take `CCC(CC)(CNC(=O)C1CCN(CCc2cccc(OC)c2)CC1)c1ccc(F)cc1`: the pIC50 in data set [1] was 6.85.

As to `COc1ccc(CN2CCC(C(=O)NCC3(c4ccc(F)cc4)CCCCC3)CC2)cc1OC`, in data set [1], the pIC50 is 6.49. Moreover, in data set [2], the EC30 turned out to be 2100 nM.

Turning to `CCC(CC)(CNC(=O)C1CCN(Cc2ccccc2OC)CC1)c1ccc(F)cc1`, the pIC50 in data set [1] is 6.92.

In the case of `O=C(NCC1(c2ccc(F)cc2)CCCCC1)C1CCN(Cc2ccccc2)CC1`, the pIC50 in data set [1] is 6.29.

For `CCC(CC)(CNC(=O)C1CCN(Cc2ccccc2)CC1)c1ccc(F)cc1`, the pIC50 in data set [1] is 7.07.

`CCCC(CCC)(CNC(=O)C1CCN(Cc2ccccc2)CC1)c1ccc(F)cc1`: the pIC50 in data set [1] was 6.43.

Regarding `CCC(CC)(CNC(=O)C1CCN(CCOc2ccccc2)CC1)c1ccc(F)cc1`, in data set [1], the pIC50 was 6.59.

Regarding `O=C(NCC1(c2ccc(F)cc2)CCC1)C1CCN(Cc2ccccc2)CC1`, in data set [1], the pIC50 is 6.41.
